Test results from PubChem BioAssay (NCI).
Where “and” joins values, the source holds several entries; their conditions need not be identical. Equal entries are not always repeated.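 Following 48 hours of exposure in 96-well plates, responses at five concentrations were used to interpolate endpoints linearly. Here, GI50 denotes the concentration required for 50% inhibition of growth. Definition used: TGI = concentration required for complete inhibition of growth.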

Legend:
Experiment in all cases: inhibition of tumour cell growth, NCI panel, 48 h
TK-10 renal = system: TK-10 renal
SNB-19 CNS = system: SNB-19 CNS
SN12C renal = system: SN12C renal
MCF7 breast = system: MCF7 breast
NCI-H522 lung = system: NCI-H522 lung
NCI-H226 lung = system: NCI-H226 lung
OVCAR-4 ovarian = system: OVCAR-4 ovarian
KM12 colon = system: KM12 colon
IGROV1 ovarian = system: IGROV1 ovarian
UACC-257 melanoma = system: UACC-257 melanoma

SMILES	TGI (TK-10 renal)	TGI (SNB-19 CNS)	TGI (SN12C renal) [µM]	TGI (MCF7 breast) [µM]	TGI (NCI-H522 lung) [µM]	TGI (NCI-H226 lung)	TGI (OVCAR-4 ovarian) [µM]	TGI (KM12 colon)	TGI (IGROV1 ovarian)	TGI (UACC-257 melanoma)	GI50 (TK-10 renal)	GI50 (SNB-19 CNS) [µM]	GI50 (SN12C renal) [µM]	GI50 (MCF7 breast) [µM]	GI50 (NCI-H522 lung) [µM]	GI50 (NCI-H226 lung) [µM]	GI50 (OVCAR-4 ovarian)	GI50 (KM12 colon) [µM]	GI50 (IGROV1 ovarian) [µM]	GI50 (UACC-257 melanoma)
O=[N+]([O-])c1ccc2c(c1)C(N1CCN(CCO)CC1)Cc1ccc(F)cc1S2 (configuration not stated)	27.8 µM	24.6 µM	28.9	28.8	18.3	23.1 µM	33.5	21.4 µM	15.7 µM	7.01 µM	–	–	–	–	–	–	–	–	–	–
O=C(Nc1ccc(Br)c2ccccc12)c1ccc2ccccc2c1O	30.3 µM	> 100 µM	24.9	25.8	6.83	6.39 µM	> 100	13.7 µM	16.4 µM	23.9 µM	–	–	–	–	–	–	–	–	–	–
CC1Cc2c(Cl)ncnc2N(C)c2ccccc21 (configuration not stated)	8.87 µM	> 100 µM	15.5	14.5	3.7	21.7 µM	> 100	> 100 µM	> 100 µM	21 µM	2.57 µM	4.72	3.4	3.17	1.76	2.05	3.02 µM	3.33	3.78	3.76 µM
C=CCC1(CN(C)C)CC/C(=C\c2ccc3c(c2)OCO3)C1=O (configuration not stated)	> 100 µM	> 100 µM	> 100	–	40.2	> 100 µM	> 100	> 100 µM	> 100 µM	> 100 µM	–	–	–	–	–	–	–	–	–	–
NC(=O)NNC/C(Cl)=C(\Cl)C(=O)O	> 100 µM	> 100 µM	> 100	–	> 100	> 100 µM	> 100	> 100 µM	> 100 µM	> 100 µM	–	–	–	–	–	–	–	–	–	–
Nc1nc2cc(Cl)ccc2n1N	> 100 µM	> 100 µM	> 100	> 100	> 100	> 100 µM	–	> 100 µM	> 100 µM	> 100 µM	–	–	–	–	–	–	–	–	–	–
CC1(c2ccc(F)cc2)C2C(=O)NC(=O)C1C(=O)NC2=O (configuration not stated)	> 100 µM	> 100 µM	> 100	–	> 100	> 100 µM	> 100	> 100 µM	> 100 µM	> 100 µM	–	–	–	–	–	–	–	–	–	–
O=C(NC1CCC[C@H]1OC(=O)c1ccccc1)c1ccccc1 (some centres not stated)	> 100 µM	> 100 µM	> 100	–	–	96.1 µM	> 100	> 100 µM	> 100 µM	> 100 µM	–	–	–	–	–	–	–	–	–	–
CCCCCCCCCC1CC(=O)OC2=C1C(=O)CCC2 (configuration not stated)	> 100 µM	> 100 µM	> 100	–	> 100	> 100 µM	> 100	> 100 µM	> 100 µM	> 100 µM	–	–	–	–	–	–	–	–	–	–
CC1C(c2ccccc2)N(C)C(c2ccccc2)C(C)C1(O)c1ccccc1 (configuration not stated)	> 100 µM	> 100 µM	> 100	–	> 100	> 100 µM	> 100	> 100 µM	> 100 µM	> 100 µM	–	–	–	–	–	–	–	–	–	–
CCOC(=O)C1=C(Nc2ccc(OC)cc2)C(N)=NC1=N	> 100 µM	> 100 µM	> 100	> 100	> 100	–	–	> 100 µM	> 100 µM	> 100 µM	8.31 µM	3.68	5.14	0.587	3.12	–	–	2.64	5.5	> 100 µM
Cc1[nH]nc(C(F)(F)F)c1Cc1sc2c(c1C(=O)N1C[C@](C)(O)CO1)c(=O)n(C)c(=O)n2C(C)C	> 100 µM	> 100 µM	> 100	> 100	> 100	> 100 µM	> 100	> 100 µM	–	–	> 100 µM	> 100	> 100	> 100	3.26	> 100	> 100 µM	> 100	–	–
COc1cc(/C=C2\[C@@H]3NC(Cc4c(OC)c(C)c(OC)c(OC)c43)C(=O)N2Cc2ccccc2)c(OC)c(C)c1OC	> 100 µM	> 100 µM	> 100	–	55	> 100 µM	89.8	> 100 µM	> 100 µM	> 100 µM	–	–	–	–	–	–	–	–	–	–
CCCCCCCCCCCCCCNCC(OC)OC	32.9 µM	33.8 µM	30.9	–	34.2	34.4 µM	30.1	26.7 µM	32.3 µM	37.5 µM	–	–	–	–	–	–	–	–	–	–
CCO/C=C\C12CCCC1NC(c1ccccc1)(c1ccccc1)O2 (configuration not stated)	> 100 µM	> 100 µM	78.3	–	83.3	> 100 µM	> 100	> 100 µM	71.1 µM	85.5 µM	–	–	–	–	–	–	–	–	–	–
CC1(C)CC(=O)C(CC2C(=O)CCCC2=O)C(=O)C1	> 100 µM	> 100 µM	> 100	–	> 100	> 100 µM	> 100	> 100 µM	> 100 µM	> 100 µM	–	–	–	–	–	–	–	–	–	–
COc1cc(C2c3cc4c(cc3[C@@H](NC3CCN(Cc5ccccc5)CC3)C3COC(=O)[C@H]23)OCO4)cc(OC)c1O (some centres not stated)	2.56 µM and 0.608 µM	22.4 µM and 2.94 µM	3.89	–	0.321	0.101 µM and 0.0535 µM	–	2.23 µM and 1.02 µM	3.59 µM and 0.567 µM	11.9 µM and 2.12 µM	0.679 µM and 0.197 µM	–	1.85	–	0.0827	–	0.209 µM and 1.12 µM	–	–	1.42 µM and 0.256 µM
CC12CCC(C1)C(C)(C)C2OC(=O)c1ccccc1N (configuration not stated)	32.8 µM	31.9 µM	31.7	31.8	22.7	–	–	38 µM	40.5 µM	29 µM	–	–	–	–	–	–	–	–	–	–
CCOC(=O)N1CCC(N=C2CSc3nnc(-c4cc(C(F)(F)F)cc(C(F)(F)F)c4)n3N2)CC1	–	11.9 µM	3.57	4.98	4.61	5.02 µM	5.49	3.95 µM	4.79 µM	3.81 µM	–	3.14	1.7	2.05	2.27	2.16	1.86 µM	2.04	1.9	1.76 µM
COc1ccc(N=NC2=C(O)CCC2=O)cc1	> 100 µM	> 100 µM	> 100	–	–	> 100 µM	> 100	> 100 µM	> 100 µM	> 100 µM	–	–	–	–	–	–	–	–	–	–
